Measurements taken from patent publication US8101760B2, “Glucocorticoid receptor modulator and methods of use” (Eli Lilly and Company, priority 2007, dated 2012).

Experiments:
[1] = Metabolic profiling of plasma after in vivo administration, rat
[2] = system: human hepatocyte cultures; test: Metabolism in human hepatocyte cultures in vitro; type: in vitro ADME
[3] = biological target: T1, human GR (glucocorticoid receptor) (Homo sapiens, UniProt P04150); test: Nuclear hormone receptor binding assay, GR; details: HEK293 cell lysate expressing human GR, [3H]-dexamethasone; mean of 5 determinations
T1 construct: expressed in transfected cells; host or cells: HEK293 (lysate, '293-GR lysate')
T1 sequence (P04150 1-777): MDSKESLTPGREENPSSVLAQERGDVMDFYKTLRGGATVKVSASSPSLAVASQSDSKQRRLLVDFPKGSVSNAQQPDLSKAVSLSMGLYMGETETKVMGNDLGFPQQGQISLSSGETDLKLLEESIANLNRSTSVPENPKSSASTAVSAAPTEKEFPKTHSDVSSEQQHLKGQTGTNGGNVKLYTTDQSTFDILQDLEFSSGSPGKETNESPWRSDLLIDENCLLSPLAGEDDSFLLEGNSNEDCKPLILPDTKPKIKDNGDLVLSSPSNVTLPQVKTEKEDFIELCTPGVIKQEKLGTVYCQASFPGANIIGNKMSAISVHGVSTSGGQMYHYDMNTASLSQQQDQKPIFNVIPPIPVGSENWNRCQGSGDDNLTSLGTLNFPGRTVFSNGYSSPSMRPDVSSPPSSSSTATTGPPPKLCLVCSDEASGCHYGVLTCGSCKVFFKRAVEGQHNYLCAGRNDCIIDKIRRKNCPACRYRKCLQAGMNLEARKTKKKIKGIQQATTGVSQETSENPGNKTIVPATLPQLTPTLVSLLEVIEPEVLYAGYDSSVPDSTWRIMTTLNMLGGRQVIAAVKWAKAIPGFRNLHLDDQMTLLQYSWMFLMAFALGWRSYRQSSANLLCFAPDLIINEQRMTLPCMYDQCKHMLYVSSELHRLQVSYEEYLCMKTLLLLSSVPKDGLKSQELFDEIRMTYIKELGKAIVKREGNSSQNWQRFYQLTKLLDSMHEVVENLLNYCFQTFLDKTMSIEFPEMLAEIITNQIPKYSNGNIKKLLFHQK
Method: Cell lysates from human embryonic kidney HEK293 cells overexpressing human GR (glucocorticoid receptor), AR (androgen receptor), MR (mineralocorticoid receptor), or PR (progesterone receptor) are used for receptor-ligand competition binding assays to determine Ki values.
Briefly, steroid receptor competition binding assays are run in a buffer containing 20 mM Hepes buffer (pH=7.6), 0.2 mM EDTA, 75 mM NaCl, 1.5 mM MgCl2, 20% glycerol, 20 mM sodium molybdate, 0.2 mM DTT (dithiothreitol), 20 μg/mL aprotinin and 20 μg/mL leupeptin. Typically, steroid receptor binding assays include radio-labeled ligands, such as 0.3 nM [^3H]-dexamethasone for GR binding, 0.36 nM [^3H]-methyltrienolone for AR binding, 0.25 nM [^3H]-aldosterone for MR binding, and 0.29 nM [^3H]-methyltrienolone for PR binding, and either 20 μg 293-GR lysate, 22 μg 293-AR lysate, 20 μg 293-MR lysate or 40 μg 293-PR lysate per well. Assays are typically run in 96-well format. Competing test compounds are added at various concentrations ranging from about 0.01 nM to 10 μM. Non-specific binding is determined in the presence of 500 nM dexamethasone for GR binding, 500 nM aldosterone for MR binding, or 500 nM methyltrienolone for AR and PR binding. […] After an incubation of 2 hours, plates are read in a Wallac Microbeta counter. […]

## CC/C(=C1\c2ccc(Cl)cc2OCc2ncccc21)c1cccc(NS(C)(=O)=O)c1 [Compound (I), (E)-N-{3-[1-(8-Chloro-11H-10-oxa-1-aza-dibenzo[a,d]cyclohepten-5-ylidene)-propyl]-phenyl}-methanesulfonamide]
[1]
  circulating entity in plasma: major circulating entity
[2]
  metabolism when incubated with human hepatocyte cultures: only minor metabolism
[3]
  Ki: 0.35 nM
